Publication PMC10041525, “New Dual Inhibitors of Bacterial Topoisomerases with Broad-Spectrum Antibacterial Activity and In Vivo Efficacy against Vancomycin-Intermediate Staphylococcus aureus” (Journal of Medicinal Chemistry, 2023)
In brackets after ≈: the same amount, converted by molar mass. Read-outs that look alike come from different tables or passages of the source.

How the values were obtained:
[1] = tested on: 100 A. baumannii strains (50 MDR, 50 non-MDR); experiment: MIC broth microdilution at IHMA Europe, panel of 100 strains; assay type: cell-based; conditions: Acinetobacter baumannii; for MIC50: read-out: MIC 50
[2] = tested on: P. aeruginosa ATCC 27853; experiment: IHMA QC MIC; assay type: cell-based; conditions: Pseudomonas aeruginosa, ATCC27853; read-out: MIC (QC, repeated tests)

MIC ([1]; A. baumannii IHMA 1769393, Lithuania 2018, Non-MDR, read-out: MIC): ≤ 0.5 µg/mL
MIC ([1]; A. baumannii IHMA 1769782, Israel 2018, MDR, read-out: MIC): 8 µg/mL (≈ 19.9 µM)
MIC ([1]; A. baumannii IHMA 1769910, Israel 2018, Non-MDR, read-out: MIC): ≤ 0.5 µg/mL
MIC ([1]; A. baumannii IHMA 1790317, Czech Republic 2018, Non-MDR, read-out: MIC): ≤ 0.5 µg/mL
MIC ([1]; A. baumannii IHMA 1790916, Romania 2018, Non-MDR, read-out: MIC): ≤ 0.5 µg/mL
MIC ([1]; A. baumannii IHMA 1791877, Israel 2018, MDR, read-out: MIC): 8 µg/mL (≈ 19.9 µM)
MIC ([1]; A. baumannii IHMA 1792961, Jordan 2018, MDR, read-out: MIC): 8 µg/mL (≈ 19.9 µM)
MIC ([1]; A. baumannii IHMA 1795669, Tunisia 2018, Non-MDR, read-out: MIC): ≤ 0.5 µg/mL
MIC ([1]; A. baumannii IHMA 1815856, Israel 2018, MDR, read-out: MIC): 8 µg/mL (≈ 19.9 µM)
MIC ([1]; A. baumannii IHMA 1821468, South Africa 2018, Non-MDR, read-out: MIC): ≤ 0.5 µg/mL
MIC ([1]; A. baumannii IHMA 1829500, Georgia 2018, Non-MDR, read-out: MIC): ≤ 0.5 µg/mL
MIC ([1]; A. baumannii IHMA 1830924, United Kingdom 2018, Non-MDR, read-out: MIC): ≤ 0.5 µg/mL
MIC ([1]; A. baumannii IHMA 1849829, Kuwait 2018, Non-MDR, read-out: MIC): ≤ 0.5 µg/mL
MIC ([1]; A. baumannii IHMA 1857118, Slovenia 2018, Non-MDR, read-out: MIC): ≤ 0.5 µg/mL
MIC ([1]; A. baumannii IHMA 1863631, France 2018, Non-MDR, read-out: MIC): ≤ 0.5 µg/mL
MIC ([1]; A. baumannii IHMA 1870054, United States 2018, Non-MDR, read-out: MIC): ≤ 0.5 µg/mL
MIC ([1]; A. baumannii IHMA 1884428, Italy 2018, Non-MDR, read-out: MIC): ≤ 0.5 µg/mL
MIC ([1]; A. baumannii IHMA 1884990, Germany 2018, Non-MDR, read-out: MIC): ≤ 0.5 µg/mL
MIC ([1]; A. baumannii IHMA 1900538, Turkey 2018, Non-MDR, read-out: MIC): ≤ 0.5 µg/mL
MIC ([1]; A. baumannii IHMA 1913773, Kenya 2018, Non-MDR, read-out: MIC): ≤ 0.5 µg/mL
MIC ([1]; A. baumannii IHMA 1926285, Qatar 2018, Non-MDR, read-out: MIC): ≤ 0.5 µg/mL
MIC ([1]; A. baumannii IHMA 1957343, Portugal 2019, Non-MDR, read-out: MIC): ≤ 0.5 µg/mL
MIC ([1]; A. baumannii IHMA 1967860, Spain 2019, Non-MDR, read-out: MIC): ≤ 0.5 µg/mL
MIC ([1]; A. baumannii IHMA 1975075, Israel 2019, Non-MDR, read-out: MIC): ≤ 0.5 µg/mL
MIC ([1]; A. baumannii IHMA 1977077, Kuwait 2019, Non-MDR, read-out: MIC): ≤ 0.5 µg/mL
MIC ([1]; A. baumannii IHMA 1983151, Greece 2019, MDR, read-out: MIC): 8 µg/mL (≈ 19.9 µM)
MIC ([1]; A. baumannii IHMA 1986678, Turkey 2019, Non-MDR, read-out: MIC): ≤ 0.5 µg/mL
MIC ([1]; A. baumannii IHMA 1987162, Croatia 2019, MDR, read-out: MIC): 8 µg/mL (≈ 19.9 µM)
MIC ([1]; A. baumannii IHMA 1993615, Turkey 2019, MDR, read-out: MIC): 8 µg/mL (≈ 19.9 µM)
MIC ([1]; A. baumannii IHMA 1995161, Czech Republic 2019, Non-MDR, read-out: MIC): ≤ 0.5 µg/mL
MIC ([1]; A. baumannii IHMA 1997936, Morocco 2019, Non-MDR, read-out: MIC): ≤ 0.5 µg/mL
MIC ([1]; A. baumannii IHMA 1999178, Belgium 2019, Non-MDR, read-out: MIC): ≤ 0.5 µg/mL
MIC ([1]; A. baumannii IHMA 2014367, Jordan 2019, Non-MDR, read-out: MIC): ≤ 0.5 µg/mL
MIC ([1]; A. baumannii IHMA 2014931, South Africa 2019, Non-MDR, read-out: MIC): ≤ 0.5 µg/mL
MIC ([1]; A. baumannii IHMA 2019315, Romania 2019, Non-MDR, read-out: MIC): ≤ 0.5 µg/mL
MIC ([1]; A. baumannii IHMA 2031511, Greece 2019, Non-MDR, read-out: MIC): ≤ 0.5 µg/mL
MIC ([1]; A. baumannii IHMA 2031524, Greece 2019, MDR, read-out: MIC): 4 µg/mL (≈ 9.96 µM)
MIC ([1]; A. baumannii IHMA 2034657, Tunisia 2019, Non-MDR, read-out: MIC): ≤ 0.5 µg/mL
MIC ([1]; A. baumannii IHMA 2035134, Serbia 2019, Non-MDR, read-out: MIC): ≤ 0.5 µg/mL
MIC ([1]; A. baumannii IHMA 2038976, Hungary 2019, MDR, read-out: MIC): 8 µg/mL (≈ 19.9 µM)
MIC ([1]; A. baumannii IHMA 2058329, Slovenia 2019, Non-MDR, read-out: MIC): ≤ 0.5 µg/mL
MIC ([1]; A. baumannii IHMA 2065587, France 2019, Non-MDR, read-out: MIC): ≤ 0.5 µg/mL
MIC ([1]; A. baumannii IHMA 2099294, United Kingdom 2019, Non-MDR, read-out: MIC): ≤ 0.5 µg/mL
MIC ([1]; A. baumannii IHMA 2129256, Qatar 2019, Non-MDR, read-out: MIC): ≤ 0.5 µg/mL
MIC ([1]; A. baumannii IHMA 2157614, Australia 2020, Non-MDR, read-out: MIC): ≤ 0.5 µg/mL
MIC ([1]; A. baumannii IHMA 2178574, Ukraine 2020, Non-MDR, read-out: MIC): ≤ 0.5 µg/mL
MIC ([1]; A. baumannii IHMA 2180134, Malaysia 2020, Non-MDR, read-out: MIC): ≤ 0.5 µg/mL
MIC ([1]; A. baumannii IHMA 2180142, Malaysia 2020, MDR, read-out: MIC): 8 µg/mL (≈ 19.9 µM)
MIC ([1]; A. baumannii IHMA 2181370, Morocco 2020, MDR, read-out: MIC): 8 µg/mL (≈ 19.9 µM)
MIC ([1]; A. baumannii IHMA 2183729, Argentina 2020, MDR, read-out: MIC): 4 µg/mL (≈ 9.96 µM)
MIC ([1]; A. baumannii IHMA 2183849, Argentina 2020, Non-MDR, read-out: MIC): ≤ 0.5 µg/mL
MIC ([1]; A. baumannii IHMA 2184382, Japan 2020, Non-MDR, read-out: MIC): ≤ 0.5 µg/mL
MIC ([1]; A. baumannii IHMA 2193375, Venezuela 2020, MDR, read-out: MIC): 8 µg/mL (≈ 19.9 µM)
MIC ([1]; A. baumannii IHMA 2193485, Venezuela 2020, Non-MDR, read-out: MIC): ≤ 0.5 µg/mL
MIC ([1]; A. baumannii IHMA 2193607, Venezuela 2020, MDR, read-out: MIC): 4 µg/mL (≈ 9.96 µM)
MIC ([1]; A. baumannii IHMA 2195460, Italy 2020, MDR, read-out: MIC): 8 µg/mL (≈ 19.9 µM)
MIC ([1]; A. baumannii IHMA 2196959, South Africa 2020, MDR, read-out: MIC): 8 µg/mL (≈ 19.9 µM)
MIC ([1]; A. baumannii IHMA 2206507, Taiwan 2020, Non-MDR, read-out: MIC): ≤ 0.5 µg/mL
MIC ([1]; A. baumannii IHMA 2212575, Hungary 2020, Non-MDR, read-out: MIC): ≤ 0.5 µg/mL
MIC ([1]; A. baumannii IHMA 2215307, Hong Kong 2020, Non-MDR, read-out: MIC): ≤ 0.5 µg/mL
MIC ([1]; A. baumannii IHMA 2216586, Taiwan 2020, MDR, read-out: MIC): 8 µg/mL (≈ 19.9 µM)
MIC ([1]; A. baumannii IHMA 2223200, Colombia 2020, Non-MDR, read-out: MIC): ≤ 0.5 µg/mL
MIC ([1]; A. baumannii IHMA 2224303, Panama 2020, Non-MDR, read-out: MIC): ≤ 0.5 µg/mL
MIC ([1]; A. baumannii IHMA 2233099, Guatemala 2020, MDR, read-out: MIC): 8 µg/mL (≈ 19.9 µM)
MIC ([1]; A. baumannii IHMA 2233548, Kazakhstan 2020, Non-MDR, read-out: MIC): ≤ 0.5 µg/mL
MIC ([1]; A. baumannii IHMA 2238964, Thailand 2020, MDR, read-out: MIC): 8 µg/mL (≈ 19.9 µM)
MIC ([1]; A. baumannii IHMA 2239052, Thailand 2020, Non-MDR, read-out: MIC): ≤ 0.5 µg/mL
MIC ([1]; A. baumannii IHMA 2261047, Belgium 2020, MDR, read-out: MIC): 8 µg/mL (≈ 19.9 µM)
MIC ([1]; A. baumannii IHMA 2261633, Canada 2020, Non-MDR, read-out: MIC): ≤ 0.5 µg/mL
MIC ([1]; A. baumannii IHMA 2274234, South Africa 2020, MDR, read-out: MIC): 8 µg/mL (≈ 19.9 µM)
MIC ([1]; A. baumannii IHMA 2275237, Chile 2020, Non-MDR, read-out: MIC): ≤ 0.5 µg/mL
MIC ([1]; MDR n = 50, read-out: MIN (minimum MIC)): 4 µg/mL (≈ 9.96 µM)
MIC50 ([1]; all isolates n = 100): ≤ 0.5 µg/mL
MIC ([1]; all isolates n = 100, read-out: MIN (minimum MIC)): ≤ 0.5 µg/mL
MIC ([1]; non-MDR n = 50, read-out: MAX (maximum MIC)): ≤ 0.5 µg/mL
MIC50 ([1]; non-MDR n = 50): ≤ 0.5 µg/mL
MIC90 ([1]; non-MDR n = 50, read-out: MIC 90): ≤ 0.5 µg/mL
MIC ([1]; non-MDR n = 50, read-out: MIN (minimum MIC)): ≤ 0.5 µg/mL
MIC [2]: 2 µg/mL (≈ 4.98 µM)
Structure (SMILES): COc1c(N2C[C@@H]3CCCN[C@@H]3C2)c(F)cc2c(=O)c(C(=O)O)cn(C3CC3)c12 [Moxifloxacin, moxifloxacin]
